Some results are limits rather than exact numbers.

Broadly, the IC50 is the point on the concentration scale where inhibition reaches its midpoint. By DC50 is commonly meant the midpoint of the concentration-degradation curve. Low readings indicate a more potent degrader, high ones a less potent degrader. The term Dmax denotes the greatest extent of degradation seen.

Format in all cases: cell-based
One test relates to Phospho-Rb (Ser807/811). Nature of the test: Phospho-Retinoblastoma (pRB) Cellular Assay. The note with it: Homo sapiens, OVCAR-3, NIH OVCAR3 cells, 24 hours; for IC50: concentration giving 50% response; for Emax: maximum response, reference compound at 10 μM = 100%, read-out: pRB Ymax. The essentials: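 OVCAR3 cells seeded overnight, then dosed with serial dilutions for 24 h at 37° C. Lysed with kit mix plus phosphatase inhibitor, ≥4 h at room temperature, read on EnVision; 100% response set by reference compound at 10 μM, giving IC50 and Ymax.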

The target in another test is GSPT1 (Homo sapiens, UniProt P15170+Q96SW2). Briefly: GSPT1 Cellular Degradation Assay (DF15-GSPT1-ePL). The note with it: DF15-GSPT1-ePL cells, 20 hours. More on the design: expressed in transfected cells. The method, boiled down:
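Human DF15 cells co-expressing a GSPT1–ePL fusion were treated with compound in RPMI 1640/10% FBS for 20 h at 37 °C. GSPT1 level was read by enzyme-fragment-complementation luminescence after 60 min with detection reagent. The reference degrader at […] defined 75% response; DC50 and Dmax were reported.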

Another test has as its target Cyclin E1 (Homo sapiens, UniProt P24864+Q96SW2). Briefly: Cyclin E1 Cellular Degradation Assay (MSD). The note with it: for DC50 / Dmax: Cyclin E1 cellular degradation; for Dmax: maximum degradation; for Ratio of GSPT1 DC50/Cyclin E1 DC50: selectivity for degradation of Cyclin E1 over GSPT1. The arrangement: endogenous in cells; host or cells: OVCAR3. The method, boiled down:
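OVCAR3 cells treated with compound for 24 h at 37 °C, lysed, and cyclin E1 measured by MSD sandwich immunoassay (rabbit capture, mouse detection anti-CCNE1). Reference degrader at […] defined 110% response; DC50 and Dmax derived from response.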

GSPT1, sequence (P15170 whole entry, the tested form may be a part): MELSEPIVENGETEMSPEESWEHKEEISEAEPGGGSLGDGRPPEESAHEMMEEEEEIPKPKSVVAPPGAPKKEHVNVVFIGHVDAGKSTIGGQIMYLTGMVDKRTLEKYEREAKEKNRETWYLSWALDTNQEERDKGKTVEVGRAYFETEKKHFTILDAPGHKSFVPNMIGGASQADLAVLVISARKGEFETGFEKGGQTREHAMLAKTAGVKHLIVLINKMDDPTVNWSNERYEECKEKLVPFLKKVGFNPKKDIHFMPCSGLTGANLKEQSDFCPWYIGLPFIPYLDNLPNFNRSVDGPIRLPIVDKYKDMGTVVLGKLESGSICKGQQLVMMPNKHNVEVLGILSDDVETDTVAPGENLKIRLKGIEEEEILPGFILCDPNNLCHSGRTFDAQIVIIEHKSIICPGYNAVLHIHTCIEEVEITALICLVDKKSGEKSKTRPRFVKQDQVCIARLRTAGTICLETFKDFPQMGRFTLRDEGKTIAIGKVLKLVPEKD
GSPT1, sequence (Q96SW2 whole entry, the tested form may be a part): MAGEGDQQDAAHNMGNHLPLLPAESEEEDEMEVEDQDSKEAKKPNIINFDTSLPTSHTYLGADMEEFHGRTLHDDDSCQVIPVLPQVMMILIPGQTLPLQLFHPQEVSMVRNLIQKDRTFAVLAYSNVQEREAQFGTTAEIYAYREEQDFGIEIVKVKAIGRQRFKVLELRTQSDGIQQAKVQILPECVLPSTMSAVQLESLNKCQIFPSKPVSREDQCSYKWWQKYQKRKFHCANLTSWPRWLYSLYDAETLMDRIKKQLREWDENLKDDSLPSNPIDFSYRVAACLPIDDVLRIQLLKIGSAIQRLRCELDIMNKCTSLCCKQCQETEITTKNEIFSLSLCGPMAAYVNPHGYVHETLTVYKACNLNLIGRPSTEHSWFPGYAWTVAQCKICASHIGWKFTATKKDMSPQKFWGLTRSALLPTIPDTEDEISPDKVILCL
GSPT1, sequence (Q16531 whole entry partner, the tested form may be a part): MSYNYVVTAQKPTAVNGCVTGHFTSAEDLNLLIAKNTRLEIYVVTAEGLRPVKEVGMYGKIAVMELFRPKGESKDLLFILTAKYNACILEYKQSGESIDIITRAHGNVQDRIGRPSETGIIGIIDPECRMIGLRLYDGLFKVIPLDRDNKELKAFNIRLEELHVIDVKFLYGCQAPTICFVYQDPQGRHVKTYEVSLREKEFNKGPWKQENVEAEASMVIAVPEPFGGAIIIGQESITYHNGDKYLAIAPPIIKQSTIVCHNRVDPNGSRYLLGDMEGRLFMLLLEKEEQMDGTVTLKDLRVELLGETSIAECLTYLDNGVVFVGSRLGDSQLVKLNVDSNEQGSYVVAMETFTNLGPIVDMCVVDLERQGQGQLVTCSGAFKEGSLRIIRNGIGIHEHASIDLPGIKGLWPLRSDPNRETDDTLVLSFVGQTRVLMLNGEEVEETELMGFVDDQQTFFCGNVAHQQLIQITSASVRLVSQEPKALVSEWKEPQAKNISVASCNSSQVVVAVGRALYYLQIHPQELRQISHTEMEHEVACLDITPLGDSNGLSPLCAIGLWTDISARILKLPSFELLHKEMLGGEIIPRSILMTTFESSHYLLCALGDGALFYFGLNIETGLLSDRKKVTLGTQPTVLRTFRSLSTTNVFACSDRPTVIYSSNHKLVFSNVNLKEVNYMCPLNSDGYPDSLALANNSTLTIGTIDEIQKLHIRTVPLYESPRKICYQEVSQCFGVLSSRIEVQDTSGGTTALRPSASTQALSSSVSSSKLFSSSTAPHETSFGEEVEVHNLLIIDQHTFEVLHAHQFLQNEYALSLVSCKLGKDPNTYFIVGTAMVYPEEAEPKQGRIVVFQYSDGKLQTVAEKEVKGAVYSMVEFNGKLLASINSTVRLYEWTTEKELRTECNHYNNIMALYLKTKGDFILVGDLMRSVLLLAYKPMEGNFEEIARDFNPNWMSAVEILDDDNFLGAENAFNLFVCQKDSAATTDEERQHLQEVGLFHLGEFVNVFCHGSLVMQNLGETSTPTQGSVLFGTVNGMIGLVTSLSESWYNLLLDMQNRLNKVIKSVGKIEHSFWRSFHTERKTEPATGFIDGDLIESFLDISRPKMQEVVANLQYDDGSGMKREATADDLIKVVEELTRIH
Cyclin E1, sequence (P24864 whole entry): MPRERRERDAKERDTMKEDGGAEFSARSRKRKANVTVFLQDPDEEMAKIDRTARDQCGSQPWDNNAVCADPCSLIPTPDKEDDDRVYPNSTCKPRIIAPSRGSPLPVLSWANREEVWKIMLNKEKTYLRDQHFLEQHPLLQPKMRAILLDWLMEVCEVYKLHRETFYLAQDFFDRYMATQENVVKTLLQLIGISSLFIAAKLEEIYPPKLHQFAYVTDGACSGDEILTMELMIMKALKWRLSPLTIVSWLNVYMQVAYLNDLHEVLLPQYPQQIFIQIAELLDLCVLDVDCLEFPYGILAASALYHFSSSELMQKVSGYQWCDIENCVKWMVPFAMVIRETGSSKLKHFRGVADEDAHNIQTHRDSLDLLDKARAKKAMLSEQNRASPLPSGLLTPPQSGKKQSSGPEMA
Cyclin E1, sequence (Q96SW2 whole entry): as the sequence (Q96SW2 whole entry, the tested form may be a part) above
Cyclin E1, sequence (Q16531 whole entry partner): as the sequence (Q16531 whole entry partner, the tested form may be a part) above

Turning to `O=C1CCC(N2Cc3ccc(COC(=O)Nc4ccc(Oc5ccccc5)cc4)c(Oc4cccnc4)c3C2=O)C(=O)N1` (centres unmarked) [Example 171, [2-(2,6-dioxopiperidin-3-yl)-3-oxo-4-(pyridin-3-yloxy)-2,3-dihydro-1H-isoindol-5-yl]methyl N-(4-phenoxyphenyl)carbamate], in the test with Phospho-Rb (Ser807/811), the 50% inhibitory concentration (IC50) is 0.16 µM and the Emax was 130%. At GSPT1, the 50% degradation concentration (DC50) was more than 14 µM and the Dmax came to 0%. On Cyclin E1, it took 0.17 µM to reach half-maximal degradation (DC50), the Dmax came to 107% and the “Ratio of GSPT1 DC50/Cyclin E1 DC50” value is more than 82.

As for `O=C1CCC(N2Cc3ccc(COC(=O)Nc4ccc(Oc5ccc(F)c(F)c5)cc4)c(OC4CCCOCC4)c3C2=O)C(=O)N1` (centres unmarked) [Example 170, [2-(2,6-dioxopiperidin-3-yl)-4-(oxepan-4-yloxy)-3-oxo-2,3-dihydro-1H-isoindol-5-yl]methyl N-[4-(3,4-difluorophenoxy)phenyl]carbamate], in the test on Phospho-Rb (Ser807/811), the IC50 is 0.052 µM and the Emax worked out at 142%. Besides, at GSPT1, the half-maximal degradation concentration (DC50) was more than 14 µM and the Dmax stood at 0%. Besides, on Cyclin E1, half-maximal degradation (DC50) was put at 0.015 µM, the Dmax was found to be 109% and the “Ratio of GSPT1 DC50/Cyclin E1 DC50” value is more than 930.

With `COc1c(COC(=O)Nc2ccc(Oc3cc(F)ccc3Cl)cc2)ccc2c1C(=O)N(C1CCC(=O)NC1=O)C2` (centres unmarked) [Example 106, [2-(2,6-dioxopiperidin-3-yl)-4-methoxy-3-oxo-2,3-dihydro-1H-isoindol-5-yl]methyl N-[4-(2-chloro-5-fluorophenoxy)phenyl]carbamate], in the test on Phospho-Rb (Ser807/811), the half-maximal inhibitory concentration (IC50) was 0.178 µM and the Emax is 113%. In addition, on GSPT1, the 50% degradation concentration (DC50) was more than 14 µM and the Dmax came out at 47%. Besides, at Cyclin E1, the DC50 amounted to 0.057 µM, the Dmax was found to be 106% and the “Ratio of GSPT1 DC50/Cyclin E1 DC50” value is more than 245.

For the compound `COCCOc1c(COC(=O)Nc2ccc(Oc3ccc(F)c(F)c3)cc2F)ccc2c1C(=O)N(C1CCC(=O)NC1=O)C2` (centres unmarked) [Example 169, [2-(2,6-dioxopiperidin-3-yl)-4-(2-methoxyethoxy)-3-oxo-2,3-dihydro-1H-isoindol-5-yl]methyl N-[4-(3,4-difluorophenoxy)-2-fluorophenyl]carbamate], in the test on Phospho-Rb (Ser807/811), it took 0.036 µM to reach half-maximal inhibition (IC50) and the Emax amounted to 120%. Besides, on GSPT1, the half-maximal degradation concentration (DC50) was more than 14 µM and the Dmax was 7%. Besides, on Cyclin E1, the DC50 stood at 0.088 µM, the Dmax was 104% and the “Ratio of GSPT1 DC50/Cyclin E1 DC50” value was more than 159.

In the case of `COc1cc(Oc2ccc(F)cc2Cl)ccc1NC(=O)OCc1ccc2c(c1OC)C(=O)N(C1CCC(=O)NC1=O)C2` (centres unmarked) [Example 104, [2-(2,6-dioxopiperidin-3-yl)-4-methoxy-3-oxo-2,3-dihydro-1H-isoindol-5-yl]methyl N-[4-(2-chloro-4-fluorophenoxy)-2-methoxyphenyl]carbamate], in the test on Phospho-Rb (Ser807/811), half-maximal inhibition (IC50) was put at 0.05 µM and the Emax was 118%. In addition, on GSPT1, the DC50 was more than 14 µM and the Dmax worked out at 7%. Also, at Cyclin E1, half-maximal degradation (DC50) was put at 0.037 µM, the Dmax was found to be 108% and the “Ratio of GSPT1 DC50/Cyclin E1 DC50” value is reported as more than 380.

Turning to `COc1c(COC(=O)Nc2ccc(Cc3ccc(F)c(F)c3)cc2)ccc2c1C(=O)N(C1CCC(=O)NC1=O)C2` (centres unmarked) [Example 17, [2-(2,6-dioxopiperidin-3-yl)-4-methoxy-3-oxo-2,3-dihydro-1H-isoindol-5-yl]methyl N-{4-[(3,4-difluorophenyl)methyl]phenyl}carbamate], in the test with Phospho-Rb (Ser807/811), the half-maximal inhibitory concentration (IC50) stood at 0.225 µM and the Emax amounted to 114%. Moreover, at GSPT1, the DC50 was more than 14 µM and the Dmax came out at 15%. For the same compound, on Cyclin E1, the DC50 came out at 0.447 µM, the Dmax is 99% and the “Ratio of GSPT1 DC50/Cyclin E1 DC50” value is reported as more than 31.

On to `COc1c(COC(=O)Nc2ccc(Oc3cc(F)c(F)c(F)c3)cc2F)ccc2c1C(=O)N(C1CCC(=O)NC1=O)C2` (centres unmarked) [Example 15, [2-(2,6-dioxopiperidin-3-yl)-4-methoxy-3-oxo-2,3-dihydro-1H-isoindol-5-yl]methyl N-[2-fluoro-4-(3,4,5-trifluorophenoxy)phenyl]carbamate], for which, in the test with Phospho-Rb (Ser807/811), the half-maximal inhibitory concentration (IC50) was found to be 0.127 µM and the Emax is 109%. Further, at GSPT1, the DC50 was more than 14 µM and the Dmax was determined as 48%. Also, at Cyclin E1, it took 0.035 µM to reach half-maximal degradation (DC50), the Dmax came out at 109% and the “Ratio of GSPT1 DC50/Cyclin E1 DC50” value is given as more than 395.

For the compound `O=C1CCC(N2Cc3ccc(COC(=O)Nc4ccc(Oc5ccc(F)c(F)c5)cc4)c(Oc4cccnc4)c3C2=O)C(=O)N1` (centres unmarked) [Example 172, [2-(2,6-dioxopiperidin-3-yl)-3-oxo-4-(pyridin-3-yloxy)-2,3-dihydro-1H-isoindol-5-yl]methyl N-[4-(3,4-difluorophenoxy)phenyl]carbamate], in the test on Phospho-Rb (Ser807/811), inhibition was half-maximal at 0.118 µM (IC50) and the Emax was determined as 120%. Moreover, at GSPT1, the half-maximal degradation concentration (DC50) was more than 14 µM and the Dmax stood at 6%. Moreover, on Cyclin E1, the DC50 stood at 0.079 µM, the Dmax came to 100% and the “Ratio of GSPT1 DC50/Cyclin E1 DC50” value is more than 177.

Turning to `CC(=O)N1CCC(Oc2c(COC(=O)Nc3ccc(Oc4ccc(F)c(F)c4)cc3)ccc3c2C(=O)N(C2CCC(=O)NC2=O)C3)CC1` (centres unmarked) [Example 179, {4-[(1-acetylpiperidin-4-yl)oxy]-2-(2,6-dioxopiperidin-3-yl)-3-oxo-2,3-dihydro-1H-isoindol-5-yl}methyl N-[4-(3,4-difluorophenoxy)phenyl]carbamate], in the test on Phospho-Rb (Ser807/811), inhibition was half-maximal at 0.042 µM (IC50) and the Emax is 140%. In addition, at GSPT1, the DC50 was more than 14 µM and the Dmax came out at 10%. At Cyclin E1, the 50% degradation concentration (DC50) is 0.224 µM, the Dmax was found to be 104% and the “Ratio of GSPT1 DC50/Cyclin E1 DC50” value is recorded as more than 62.

`CC(C)(O)COc1c(COC(=O)Nc2ccc(Oc3ccc(F)c(F)c3)cc2)ccc2c1C(=O)N(C1CCC(=O)NC1=O)C2` (centres unmarked) [Example 159, [2-(2,6-dioxopiperidin-3-yl)-4-(2-hydroxy-2-methylpropoxy)-3-oxo-2,3-dihydro-1H-isoindol-5-yl]methyl N-[4-(3,4-difluorophenoxy)phenyl]carbamate]: in the test with Phospho-Rb (Ser807/811), the IC50 amounted to 0.047 µM and the Emax was 145%. Moreover, on GSPT1, the half-maximal degradation concentration (DC50) is more than 14 µM and the Dmax turned out to be 21%. For the same compound, at Cyclin E1, it took 0.015 µM to reach half-maximal degradation (DC50), the Dmax was determined as 101% and the “Ratio of GSPT1 DC50/Cyclin E1 DC50” value is given as more than 937.

Regarding `CC(C)Oc1c(COC(=O)Nc2ccc(Oc3cccc(F)c3F)cc2)ccc2c1C(=O)N(C1CCC(=O)NC1=O)C2` (centres unmarked) [Example 120, [2-(2,6-dioxopiperidin-3-yl)-3-oxo-4-(propan-2-yloxy)-2,3-dihydro-1H-isoindol-5-yl]methyl N-[4-(2,3-difluorophenoxy)phenyl]carbamate], in the test with Phospho-Rb (Ser807/811), the half-inhibitory concentration (IC50) was 0.055 µM and the Emax was found to be 121%. For the same compound, on GSPT1, the half-maximal degradation concentration (DC50) was more than 14 µM and the Dmax amounted to 6%. In addition, at Cyclin E1, half-maximal degradation (DC50) was put at 0.148 µM, the Dmax came to 108% and the “Ratio of GSPT1 DC50/Cyclin E1 DC50” value is on record as more than 95.

`O=C1CCC(N2Cc3ccc(COC(=O)Nc4ccc(Oc5cc(F)cc(F)c5)cc4F)c(OC4CCOCC4)c3C2=O)C(=O)N1` (centres unmarked) [Example 140, [2-(2,6-dioxopiperidin-3-yl)-4-(oxan-4-yloxy)-3-oxo-2,3-dihydro-1H-isoindol-5-yl]methyl N-[4-(3,5-difluorophenoxy)-2-fluorophenyl]carbamate]: in the test on Phospho-Rb (Ser807/811), the IC50 is 0.016 µM and the Emax was 132%. At GSPT1, the DC50 was more than 14 µM and the Dmax stood at 0%. On Cyclin E1, half-maximal degradation (DC50) was put at 0.03 µM, the Dmax worked out at 105% and the “Ratio of GSPT1 DC50/Cyclin E1 DC50” value was more than 474.

In the case of `O=C1CCC(N2Cc3ccc(COC(=O)Nc4ccc(Oc5ccc(F)c(F)c5)cc4F)c(OC4CCOCC4)c3C2=O)C(=O)N1` (centres unmarked) [Example 132, [2-(2,6-dioxopiperidin-3-yl)-4-(oxan-4-yloxy)-3-oxo-2,3-dihydro-1H-isoindol-5-yl]methyl N-[4-(3,4-difluorophenoxy)-2-fluorophenyl]carbamate], in the test with Phospho-Rb (Ser807/811), the half-inhibitory concentration (IC50) is 0.066 µM and the Emax worked out at 142%. For the same compound, on GSPT1, the DC50 is more than 14 µM and the Dmax turned out to be 10%. Moreover, on Cyclin E1, the half-maximal degradation concentration (DC50) was 0.02 µM, the Dmax came to 107% and the “Ratio of GSPT1 DC50/Cyclin E1 DC50” value is more than 693.

With `COc1c(COC(=O)Nc2ccc(Oc3cccc(F)c3)cc2Cl)ccc2c1C(=O)N(C1CCC(=O)NC1=O)C2` (centres unmarked) [Example 27, [2-(2,6-dioxopiperidin-3-yl)-4-methoxy-3-oxo-2,3-dihydro-1H-isoindol-5-yl]methyl N-[2-chloro-4-(3-fluorophenoxy)phenyl]carbamate], in the test on Phospho-Rb (Ser807/811), inhibition was half-maximal at 1.18 µM (IC50) and the Emax came to 86%. For the same compound, on GSPT1, the 50% degradation concentration (DC50) was more than 14 µM and the Dmax came out at 30%. At Cyclin E1, it took 0.093 µM to reach half-maximal degradation (DC50), the Dmax worked out at 104% and the “Ratio of GSPT1 DC50/Cyclin E1 DC50” value was more than 151.

The values above are taken from US20250084056A1, “SUBSTITUTED OXOISOINDOLINYL PIPERIDINE-2,6-DIONE COMPOUNDS” (BRISTOL-MYERS SQUIBB COMPANY, priority 2023, published 2025).
